# Test results from PubChem BioAssay AID336 (DTP/NCI, 2004).
# “And” between values parts separate entries of the source, which are not always exact repeats. Equal entries are not always repeated. Toxic doses and inconclusive results are not listed.
# Tested on: BDF1 mice, P388/VCR leukemia ip, median survival T/C
# Assay: NCI In Vivo Anticancer Drug Screen. Data for tumor model P388 Leukemia resistant to Vincristine; NSC 67574 (intraperitoneal) in B6D2F1 (BDF1) mice
# Settings: endpoint: median survival time, higher = longer survival
# Protocol: The antitumor activity of compounds was measured in mice bearing transplantable tumors. Survival or tumor size were measured and the results are expressed as the measurement made in the treated group (T) divided by the measurement made in the vehicle treated control group (C). The tumor model used in this assay is P388 Leukemia resistant to Vincristine; NSC 67574 (intraperitoneal) in B6D2F1 (BDF1) mice
# [1] = dose: 100.0 mg/kg/injection, schedule: Q01DX010 (ip), vehicle: saline
# [2] = dose: 10.0 mg/kg/injection, schedule: Q01DX010 (ip), vehicle: saline
# [3] = dose: 20.0 mg/kg/injection, schedule: Q01DX010 (ip), vehicle: saline
# [4] = dose: 5.0 mg/kg/injection, schedule: Q01DX010 (ip), vehicle: saline
# [5] = dose: 40.0 mg/kg/injection, schedule: Q01DX010 (ip), vehicle: saline
smiles,measurement,setting,value
CC[C@@]1(O)C[C@H](OC2CC(N(C)C)C(OC3CC(O)C(OC4CCC(=O)C(C)O4)C(C)O3)C(C)O2)c2c(cc3c(c2O)C(=O)c2c(O)ccc(O)c2C3=O)[C@H]1C(=O)OC (stereo partly specified),T/C,"dose: 2.88 mg/kg/injection, schedule: Q04DX003 (ip), vehicle: water",118 % of control
same,T/C,"dose: 4.8 mg/kg/injection, schedule: Q04DX003 (ip), vehicle: water",117 % of control
same,T/C,"dose: 8.0 mg/kg/injection, schedule: Q04DX003 (ip), vehicle: water",95 % of control
O=C(Nc1ccc(C2=NCCN2)cc1)c1cc(Cl)cc(C(=O)Nc2ccc(C3=NCCN3)cc2)c1,T/C,"dose: 140.0 mg/kg/injection, schedule: Q01DX010 (ip), vehicle: saline",100 % of control
same,T/C,"dose: 210.0 mg/kg/injection, schedule: Q01DX010 (ip), vehicle: saline",109 % of control
same,T/C,"dose: 315.0 mg/kg/injection, schedule: Q01DX010 (ip), vehicle: saline",100 % of control
COc1cc(-c2ccc(Nc3ccccc3C(=O)O)c(OC)c2)ccc1Nc1ccccc1C(=O)O,T/C,[1],150 % of control
CC[C@]1(O)C[C@H]2CN(CCc3c([nH]c4ccccc34)[C@@](C(=O)OC)(c3cc4c(cc3OC)N(C=O)[C@H]3[C@@](O)(C(=O)OC)[C@H](OC(C)=O)[C@]5(CC)C=CCN6CC[C@]43[C@@H]65)C2)C1,T/C,"dose: 0.03 mg/kg/injection, schedule: Q01DX010 (ip), vehicle: saline",110 % of control
same,T/C,"dose: 0.06 mg/kg/injection, schedule: Q01DX010 (ip), vehicle: saline",113 % of control
same,T/C,"dose: 0.12 mg/kg/injection, schedule: Q01DX010 (ip), vehicle: saline",114 % of control
same,T/C,"dose: 0.36 mg/kg/injection, schedule: Q04DX003 (ip), vehicle: saline",106 % of control
same,T/C,"dose: 0.6 mg/kg/injection, schedule: Q04DX003 (ip), vehicle: saline",109 % of control
same,T/C,"dose: 1.0 mg/kg/injection, schedule: Q04DX003 (ip), vehicle: saline",113 % of control
same,T/C,"dose: 1.67 mg/kg/injection, schedule: Q04DX003 (ip), vehicle: saline",107 % of control
same,T/C,"dose: 250.0 micrograms/kg/injection, schedule: Q04DX003 (ip), vehicle: saline",111 % of control
same,T/C,"dose: 324.0 micrograms/kg/injection, schedule: Q04DX003 (ip), vehicle: saline",98 % of control and 103 % of control
same,T/C,"dose: 360.0 micrograms/kg/injection, schedule: Q04DX003 (ip), vehicle: saline",101 % of control and 104 % of control
same,T/C,"dose: 389.0 micrograms/kg/injection, schedule: Q04DX003 (ip), vehicle: saline",109 % of control
same,T/C,"dose: 432.0 micrograms/kg/injection, schedule: Q04DX003 (ip), vehicle: saline",106 % of control
same,T/C,"dose: 500.0 micrograms/kg/injection, schedule: Q04DX003 (ip), vehicle: saline",107 % of control
same,T/C,"dose: 540.0 micrograms/kg/injection, schedule: Q04DX003 (ip), vehicle: saline",99 % of control and 104 % of control
same,T/C,"dose: 600.0 micrograms/kg/injection, schedule: Q04DX003 (ip), vehicle: saline",99 % of control and 103 % of control
same,T/C,"dose: 648.0 micrograms/kg/injection, schedule: Q04DX003 (ip), vehicle: saline",118 % of control
same,T/C,"dose: 720.0 micrograms/kg/injection, schedule: Q04DX003 (ip), vehicle: saline",104 % of control
same,T/C,"dose: 900.0 micrograms/kg/injection, schedule: Q04DX003 (ip), vehicle: saline",104 % of control and 111 % of control
same,T/C,"dose: 1000.0 micrograms/kg/injection, schedule: Q04DX003 (ip), vehicle: saline",95 % of control and 104 % of control and 108 % of control
same,T/C,"dose: 1080.0 micrograms/kg/injection, schedule: Q04DX003 (ip), vehicle: saline",113 % of control
same,T/C,"dose: 1200.0 micrograms/kg/injection, schedule: Q04DX003 (ip), vehicle: saline",107 % of control
same,T/C,"dose: 1500.0 micrograms/kg/injection, schedule: Q04DX003 (ip), vehicle: saline",99 % of control and 101 % of control
same,T/C,"dose: 1670.0 micrograms/kg/injection, schedule: Q04DX003 (ip), vehicle: saline",100 % of control
same,T/C,"dose: 1800.0 micrograms/kg/injection, schedule: Q04DX003 (ip), vehicle: saline",115 % of control
same,T/C,"dose: 2000.0 micrograms/kg/injection, schedule: Q04DX003 (ip), vehicle: saline",108 % of control and 111 % of control
O=c1[nH]cc(F)c(=O)[nH]1,T/C,"dose: 2.5 mg/kg/injection, schedule: Q01DX010 (ip), vehicle: saline",155 % of control
same,T/C,[2],200 % of control
same,T/C,[3],116 % of control and 235 % of control
same,T/C,"dose: 21.6 mg/kg/injection, schedule: Q04DX003 (ip), vehicle: saline",154 % of control
same,T/C,"dose: 36.0 mg/kg/injection, schedule: Q04DX003 (ip), vehicle: saline",188 % of control
same,T/C,"dose: 60.0 mg/kg/injection, schedule: Q04DX003 (ip), vehicle: saline",252 % of control
same,T/C,"dose: 100.0 mg/kg/injection, schedule: Q04DX003 (ip), vehicle: saline",270 % of control
C[n+]1ccc(NC(=O)c2ccc(NC(=O)c3cccc(C(=O)Nc4ccc(C(=O)Nc5cc[n+](C)cc5)cc4)c3)cc2)cc1,T/C,[4],100 % of control
same,T/C,[2],107 % of control
same,T/C,[5],166 % of control
C[C@@H]1C[C@@H]([C@H](O)CC2CC(=O)NC(=O)C2)C(=O)[C@@H](C)C1,T/C,[4],92 % of control and 108 % of control
same,T/C,[2],100 % of control and 104 % of control
same,T/C,[3],112 % of control and 116 % of control
same,T/C,[5],120 % of control and 124 % of control
CO[C@H](C(=O)[C@@H](O)[C@@H](C)O)[C@@H]1Cc2cc3cc(OC4CC(OC5CC(O)C(O)C(C)O5)C(O)C(C)O4)c(C)c(O)c3c(O)c2C(=O)[C@H]1OC1CC(OC2CC(OC3CC(C)(O)C(O)C(C)O3)C(O)C(C)O2)C(O)C(C)O1 (stereo partly specified),T/C,"dose: 216.0 micrograms/kg/injection, schedule: Q01DX005 (ip), vehicle: water",97 % of control
same,T/C,"dose: 360.0 micrograms/kg/injection, schedule: Q01DX005 (ip), vehicle: water",100 % of control
same,T/C,"dose: 600.0 micrograms/kg/injection, schedule: Q01DX005 (ip), vehicle: water",95 % of control
same,T/C,"dose: 1000.0 micrograms/kg/injection, schedule: Q01DX005 (ip), vehicle: water",95 % of control
CN(C)c1nc(N(C)C)nc(N(C)C)n1,T/C,"dose: 18.8 mg/kg/injection, schedule: Q01DX010 (ip), vehicle: saline",100 % of control
same,T/C,"dose: 37.5 mg/kg/injection, schedule: Q01DX010 (ip), vehicle: saline",100 % of control
same,T/C,"dose: 75.0 mg/kg/injection, schedule: Q01DX010 (ip), vehicle: saline",100 % of control
same,T/C,"dose: 150.0 mg/kg/injection, schedule: Q01DX010 (ip), vehicle: saline",104 % of control
C[n+]1ccc(Nc2ccc(NC(=O)c3ccc(Nc4cc[n+](C)c5ccc(N)cc45)cc3)cc2)cc1,T/C,"dose: 3.24 mg/kg/injection, schedule: Q04DX003 (ip), vehicle: water",116 % of control
Nc1nncs1,T/C,"dose: 64.8 mg/kg/injection, schedule: Q04DX003 (ip), vehicle: saline",101 % of control
same,T/C,"dose: 180.0 mg/kg/injection, schedule: Q04DX003 (ip), vehicle: saline",151 % of control
CCN(CC)CCNc1ccc(C)c2sc3ccccc3c(=O)c12,T/C,"dose: 50.0 mg/kg/injection, schedule: Q01DX010 (ip), vehicle: saline",159 % of control and 172 % of control
same,T/C,[1],100 % of control
Nc1nc(SCc2ccccc2)c2[nH]cnc2n1,T/C,"dose: 8.0 mg/kg/injection, schedule: Q01DX010 (ip), vehicle: saline",100 % of control
same,T/C,"dose: 16.0 mg/kg/injection, schedule: Q01DX010 (ip), vehicle: saline",95 % of control and 100 % of control
same,T/C,"dose: 32.0 mg/kg/injection, schedule: Q01DX010 (ip), vehicle: saline",104 % of control and 109 % of control
same,T/C,"dose: 64.0 mg/kg/injection, schedule: Q01DX010 (ip), vehicle: saline",95 % of control and 100 % of control
Clc1ncnc2nc[nH]c12,T/C,"dose: 7.5 mg/kg/injection, schedule: Q01DX010 (ip), vehicle: saline",96 % of control and 119 % of control
same,T/C,"dose: 15.0 mg/kg/injection, schedule: Q01DX010 (ip), vehicle: saline",92 % of control and 107 % of control
same,T/C,"dose: 30.0 mg/kg/injection, schedule: Q01DX010 (ip), vehicle: saline",107 % of control
same,T/C,"dose: 60.0 mg/kg/injection, schedule: Q01DX010 (ip), vehicle: saline",92 % of control
N[C@@H](Cc1ccc(N(CCCl)CCCl)cc1)C(=O)O,T/C,"dose: 3.6 mg/kg/injection, schedule: Q01DX001 (ip), vehicle: saline",184 % of control
same,T/C,"dose: 6.0 mg/kg/injection, schedule: Q01DX001 (ip), vehicle: saline",181 % of control
same,T/C,"dose: 10.0 mg/kg/injection, schedule: Q01DX001 (ip), vehicle: saline",191 % of control
same,T/C,"dose: 16.7 mg/kg/injection, schedule: Q01DX001 (ip), vehicle: saline",161 % of control
O=NN(CCCl)C(=O)NCCCl,T/C,"dose: 6.25 mg/kg/injection, schedule: Q01DX010 (ip), vehicle: saline",300 % of control
same,T/C,"dose: 12.5 mg/kg/injection, schedule: Q01DX010 (ip), vehicle: saline",188 % of control and 300 % of control
same,T/C,"dose: 13.0 mg/kg/injection, schedule: Q01DX001 (ip), vehicle: saline",151 % of control
same,T/C,"dose: 21.6 mg/kg/injection, schedule: Q01DX001 (ip), vehicle: saline",164 % of control
same,T/C,"dose: 36.0 mg/kg/injection, schedule: Q01DX001 (ip), vehicle: saline",212 % of control
